“Also recorded” adds a separate entry of the source.
How the values were obtained:
[1] = target: T1, SIN3A occupancy at the Homer1 promoter (Mus musculus, UniProt Q60520); test: ChIP-qPCR of SIN3A at Homer1 in mouse frontal cortex; assay type: in vivo
T1 construct: from tissue; host or cells: mouse frontal cortex (C57BL/6N, treated in vivo)
Procedure: ChIP assays were performed using the MAGnify ChIP system (ThermoFisher, MA) according to the manufacturer's protocol with a few modifications. A small section (50 mg) of the frontal cortex (FC) was used. Chromatin was sheared with the Covaris® S2 system (Covaris, Woburn, MA) using the following program: duty cycle 5%, intensity 2, 200 cycles per burst, 60 s cycle per time, 20 cycles, temperature 4° C. A volume of 10 μL chromatin was used per sample. A total of 0.5 μg of the anti-H3 antibody (PA5 16183, Invitrogen, Carlsbad, CA), 1 μg of the anti-SIN3A antibody (ab3479, Abcam, Cambridge, MA) or anti-IgG (ab37355, Abcam) was used per sample. Quantitative real-time PCR analysis was performed following magnetic bead-based DNA purification. The DNA samples were amplified in quadruplicate reactions as previously described [Ibi et al 2017] using the QuantStudio 6 Flex Real-Time PCR System (Applied Biosystems) using the PowerUP SYBR Green Master Mix (Applied Biosystems). All primers for ChIP-qPCR are described in FIG. 34.

[2] = system: HDAC-regulated genes in spleen and frontal cortex; test: Pilot RT-qPCR in spleen and frontal cortex of treated mice; assay type: in vivo, mouse; settings: 5, 15 or 50 mg/kg, chronic
Procedure: For the pilot RT-qPCR experiment, in addition to the vehicle condition (ethanol 100%/kolliphor/saline 0.9% in a proportion of 1:1:14.4; for the 50 mg/kg dose, 14 μL NaOH 1M were also added), three doses (mg/kg) of E6R were tested: 5, 15, and 50, with 4 (vehicle) or 3 (E6R) animals per group. A dose of 50 mg/kg was picked to conduct further experiments. For the RNA-Seq experiment, E6R was dissolved in a vehicle solution containing saline 55% v/v, DMSO 34% v/v, ethanol 5% v/v, kolliphor EL (Sigma-Aldrich, MO, USA) 5% v/v, NaOH 1M 1% v/v. The vehicle group received the same solution. Animals were injected daily by intraperitoneal (I.P.) injection with 5 μL/g of the solution (50 mg/kg of the drug or vehicle) at 11 am for 10 days. Animal wellness was verified by daily visual inspection and weighing. […] On the 11th day, animals were sacrificed by bleeding via heart puncture under carbon dioxide anesthesia. The brains were quickly removed and the bilateral frontal cortex (bregma 1.90 to 1.40 mm) was dissected followed by total RNA extraction. The spleens were also collected in the pilot RT-qPCR experiments.
Qiagen™ RNeasy mini kits (Valencia, CA) were used following the manufacturer's protocol. […] Purity of the RNA preparation was determined as the 260/280 nm ratio with expected values between 2 and 2.3. […]

[3] = system: PAH1 and PAH3 domains of human SIN3A and SIN3B; test: Ligand-detected NMR, human SIN3A and SIN3B PAH1 and PAH3; assay type: binding, H. sapiens; settings: FIG. 28
Procedure: (§1) Ligand-detected NMR experiments: all results were acquired using a 3 mm tube at 25° C. on a Bruker 600 MHz Avance II system equipped with a CPPTCI cryoprobe (Bruker BioSpin Corp.). In all experiments, the concentration of E6R was fixed at 300 μM (from a stock of 25 mM in deuterated DMSO) and the concentration of the protein at 10 μM. The volume of deuterated DMSO was kept constant (1.5%) in all tested samples. Right before the experiments, the compound and protein were diluted in 1×PBS containing 0.1% deuterated dithiothreitol (DTT) to a total volume of 200 μL. Samples were diluted by 5% with D2O for magnetic field lock. Spectra were acquired for ligand only, protein only, and ligand+protein. […] STD experiments [Mayer et al 2001] were acquired with 160 scans, with protein irradiation applied for 3 s at 0 ppm and −20 ppm for the on and off resonance experiments, respectively. On and off resonance spectra were collected and stored separately. One-dimensional CPMG-R2 edited experiments [Hajduk et al 1997] were collected for samples with and without proteins using seven CPMG delays (0, 25, 50, 100, 300, 500, and 800 ms) with four scans per delay. Proton spectra used to measure DLB and chemical shift perturbations in the absence and presence of the proteins were recorded with 16 scans using a recycle delay of 3 s. […]

human SIN3A PAH2 domain = target: T2, human SIN3A PAH2 domain (Homo sapiens, UniProt Q96ST3); test: Ligand-detected NMR, human SIN3A PAH2; assay type: binding, H. sapiens; settings: 300 μM compound, 10 μM protein
T2 construct: Residues 301-390 of human SIN3A (PAH2 domain) were inserted into the pMALC2XE vector for NMR experiments; made in house; host or cells: E. coli BL21 (DE3)
T2 sequence (Q96ST3 301-390): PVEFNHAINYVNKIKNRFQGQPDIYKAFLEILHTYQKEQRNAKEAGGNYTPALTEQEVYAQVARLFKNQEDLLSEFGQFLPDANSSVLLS
Procedure: as §1

[4] = Mouse liver microsome stability test; assay type: in vitro ADME; settings: 1 mg/mL hepatic microsomes
Procedure: Mouse liver microsome (MLM) half-life measurements were performed by Scripps Florida Pharmacology Core, according to their protocols [Lamberto et al 2017]. 1 mg/mL hepatic microsomes was used to test compounds.
To assess whether E6R may be suitable for testing the effect of HDAC inhibition via new mechanisms in mouse, the half-life […] and intrinsic clearance (Clint) of this compound was first measured using a standard microsomal metabolic assay where sunitinib was used as a control [Lamberto et al 2017]. In this setting, compound degradation is induced by concentrated microsomes isolated from mouse liver. In particular, these hepatic extracts contain the cytochrome P450 system that is primarily responsible for first pass metabolism in vivo.

[5] = system: HDAC class I and II enzymes (live yeast cells, HeLa nuclear extract, semi-purified human HDAC1); test: HDAC-Glo I/II luminescence HDAC enzymatic assay; assay type: biochemical, S. cerevisiae; human; settings: three HDAC sources
Procedure: The HDAC-Glo I/II screening system (Promega, cat #G6430) was adapted to measure the effect of compounds on the enzymatic activity of human and yeast HDAC sources. […] FLAG-HDAC1 was eluted from anti-FLAG beads before running the assay, using a FLAG peptide. Nuclear extracts from human HeLa cells were provided in the assay kit. HDAC enzymatic activity was measured following the manufacturer's protocol. Briefly, linear ranges of the assay were determined by measuring luminescence signals, in a serial dilution manner, for semi-purified human HDAC1, or live yeast cells, diluted in the HDAC-Glo I/II buffer. For HeLa nuclear extracts, the manufacturer provided this information in the assay kit. For the different HDAC sources, dilution factors corresponding to signals in the linear ranges were used. To test the effect of compounds (three or four replicates) on HDAC enzymatic activity, equal volumes of HDAC sources (5 μL), and inhibitors (5 μL) were added to the different wells of a white, flat bottom 384-well plate. The plate was then briefly centrifuged with a tabletop centrifuge, and gently shaken for 1 min at 700 rpm. The plate was tightly sealed to prevent evaporation, and incubated at room temperature for 1 h. […] Luminescence signals were measured using a TriStar luminometer from Berthold Technologies, with 1 s integration time per sample. […]

T1 sequence (Q60520 whole entry): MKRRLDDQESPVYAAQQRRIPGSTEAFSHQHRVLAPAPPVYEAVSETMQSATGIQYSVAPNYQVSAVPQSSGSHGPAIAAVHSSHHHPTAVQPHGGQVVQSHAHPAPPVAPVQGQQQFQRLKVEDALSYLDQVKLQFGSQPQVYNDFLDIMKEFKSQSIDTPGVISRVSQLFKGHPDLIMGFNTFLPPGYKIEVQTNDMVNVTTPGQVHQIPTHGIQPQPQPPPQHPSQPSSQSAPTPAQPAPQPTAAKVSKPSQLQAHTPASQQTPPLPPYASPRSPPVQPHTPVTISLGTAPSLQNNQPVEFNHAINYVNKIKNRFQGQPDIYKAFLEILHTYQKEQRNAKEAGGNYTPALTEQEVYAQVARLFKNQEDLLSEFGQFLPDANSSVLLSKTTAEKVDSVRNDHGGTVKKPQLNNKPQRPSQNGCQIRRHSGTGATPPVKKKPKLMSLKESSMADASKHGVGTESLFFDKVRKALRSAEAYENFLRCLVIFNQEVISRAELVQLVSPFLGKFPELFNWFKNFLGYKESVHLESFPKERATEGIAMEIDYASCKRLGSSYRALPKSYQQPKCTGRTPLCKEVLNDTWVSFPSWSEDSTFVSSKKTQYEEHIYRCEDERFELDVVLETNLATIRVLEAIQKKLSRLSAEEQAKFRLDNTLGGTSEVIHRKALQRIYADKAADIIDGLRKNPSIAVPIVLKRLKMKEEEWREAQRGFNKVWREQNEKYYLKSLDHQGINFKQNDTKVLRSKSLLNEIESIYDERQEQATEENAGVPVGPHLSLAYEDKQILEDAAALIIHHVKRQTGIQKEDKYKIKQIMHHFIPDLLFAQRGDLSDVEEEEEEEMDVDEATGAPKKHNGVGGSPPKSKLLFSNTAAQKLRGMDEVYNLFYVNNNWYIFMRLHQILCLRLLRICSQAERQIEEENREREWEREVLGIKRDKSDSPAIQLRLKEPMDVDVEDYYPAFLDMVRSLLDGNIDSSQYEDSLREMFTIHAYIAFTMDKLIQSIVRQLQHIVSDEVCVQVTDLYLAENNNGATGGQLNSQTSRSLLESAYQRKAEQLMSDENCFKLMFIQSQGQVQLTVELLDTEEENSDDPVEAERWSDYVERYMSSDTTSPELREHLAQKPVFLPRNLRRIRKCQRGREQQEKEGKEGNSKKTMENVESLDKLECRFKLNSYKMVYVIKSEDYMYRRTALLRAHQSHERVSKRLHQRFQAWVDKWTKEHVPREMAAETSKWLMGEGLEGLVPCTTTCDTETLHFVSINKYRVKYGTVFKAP

For C[C@@H](NC(=O)c1c(O)n2ccccc2nc1=O)c1ccccc1 [E6R, 4-hydroxy-2-oxo-N—((R)-1-phenylethyl)-3,4-dihydro-2H-pyrido[, 2-a]pyrimidine-3-carboxamide], the “recruitment of SIN3A at Homer1 promoter” value ([1]; HDAC2 cKO mice) was “not observed”, the “recruitment of SIN3A at Homer1 promoter” value ([1]; WT mice, chronic 50 mg/kg, vs vehicle) was “significantly reduced recruitment; also recorded: significantly reduces” and the “expression levels of tested genes in spleen and frontal cortex” value [2] was “able to change expression levels”. For the same compound, the “binding to other PAH domains of human SIN3A and SIN3B by NMR” value [3] was “can bind”, the “binding to human SIN3A PAH2 by NMR” value (human SIN3A PAH2 domain) was “could bind; also recorded: virtually identical to those of yeast Sin3 PAH2” and the “half-life in mouse liver microsomes” value [4] was 17 min.
With CC(/C=C/C(=O)NO)=C\[C@@H](C)C(=O)c1ccc(N(C)C)cc1 [TSA, trichostatin A] the “inhibition of HDAC enzymatic activity” value [5] was “systematically reduced HDAC activity”.
